Patent publication US20250197831A1, “LACTASE SOLUTION” (GODO SHUSEI CO., LTD., priority 2021, published 2025)
Counter-ions that a name gives are not always drawn.

Key:
lactase = molecular target: T1, lactase (Kluyveromyces lactis, UniProt P00723); assay: Residual activity of lactase activity after storage; format: physicochemical; settings: for Residual Activity: storage at 50° C. for 3 days; for residual activity of lactase activity after storage (storage stability test): 0.005% and 0.01% in 60,000 U/g lactase solution, stored at 12° C. for 30 days
T1 construct: purchased GODO SHUSEI CO., LTD; GODO-YNL2LS
Protocol: In the following examples and the like, commercially available GODO-YNL2LS (manufactured by GODO SHUSEI CO., LTD.) was used as the lactase solution. […]
A diluted enzyme solution (0.5 mL) and 0.5 mL of a basic buffer (100 mM phosphate buffer (pH 6.5) containing 0.1 mM manganese chloride) are mixed, and the mixture is preheated at 37° C. for 3 minutes, and then, 1.0 mL of a 1.65 mM O-nitrophenyl-β-D-galactopyranoside (ONPG) aqueous solution is added thereto to cause a reaction at 37° C. for 1 minute. After 2.0 mL of a reaction stop solution (200 mM sodium carbonate) was added thereto, the absorbance at OD 420 nm was measured. One unit (U) is the enzyme activity that increases the OD […] by 1 from the substrate in 10 minutes.
(§1) A predetermined amount of a given additive was added to GODO-YNL2LS, and the slope (−a) showing filter permeability and the residual activity of lactase activity were measured.
Each lactase solution was obtained by adding the additive shown in the table in a predetermined amount to 60,000 U/g GODO-YNL2LS. Each lactase solution immediately after preparation was subjected to a filter permeability test and a lactase activity measurement by the above-mentioned methods. […]
In a container, 0.03 g of a saturated fatty acid and 1 mL of a 1 M aqueous sodium hydroxide solution were mixed, and 4 mL of distilled water was added thereto. The mixture was subjected to a saponification treatment in boiling water at 100° C. for 5 minutes, then left to cool to room temperature, and the reaction product was added to 294 g of a total amount of the lactase solution (GODO-YNL2LS) (addition amount: 0.01%). The filtrate obtained by filtering this was subjected to a filter permeability test and a residual activity of lactase activity.
In this example, 108 g of 99% glycerin was mixed with 0.03 g of the unsaturated fatty acid in a container. The mixture was added to 192 g of a total amount of the lactase solution (GODO-YNL2LS) (addition amount: 0.01%). The filtrate obtained by filtering this was subjected to a filter permeability test and a residual activity of lactase activity.

[1] = Filter permeability test of the lactase solution (slope −a of flux vs permeate); format: physicochemical; settings: for Slope (−a) Before Shaking: immediately after preparation; for Slope (−a) After Shaking: shaken at 20° C., 30 mm, 100 spm, 1 hour
Protocol: The detailed conditions in this example of the filter permeability test will be described in detail below.
The following operation was performed in an environment of 5 to 15° C. • 1. A measuring apparatus, a lactase solution sample, and distilled water were cooled to the test environment temperature. • 2. The lactase solution sample was diluted with distilled water or concentrated by ultrafiltration to adjust the lactase activity to 16,000 to 17,500 U/g and mixed well. • 3. In the test, one in which a 25 nun stainless steel filter holder (manufactured by PALL Corporation, product number 1209 (effective membrane area: 3.7 cm^2)) is connected to a stainless steel holder with a 47 mm tank (Advantec Toyo Kaisha, Ltd., product name “KST-47”) was used as an apparatus. A sample permeating portion in the filter holder is configured to include an O-ring, a membrane, a support screen, and an underdrain disc from the measurement sample inlet side (in the test of the present invention, the filter of the stainless steel holder with the tank and the parts of the filter bolding portion (the support screen and the support thereof) were not attached). As the membrane, DURAPORE (product name) (pore diameter: 0.22 μm, φ25 mm, made of hydrophilic PVDF) manufactured by Merck Millipore was used, and as the support screen, Type 316 stainless steel attached to the filter holder was used. In addition, in order to adjust the permeation rate, four circular label stickers (manufactured by A-One Co., Ltd., product name A-one color label 07010) having a diameter of 0.9 cm were stuck symmetrically to an upper portion of the support screen (measurement sample inlet side) (effective membrane area: 1.26 cm^2), and a membrane filter (pore diameter: 0.22 μm) was set. The membrane was rinsed with a 50% glycerin aqueous solution and attached to the stainless steel filter holder. • 4. The lactase solution sample (sample) diluted in 2. was charged into the stainless steel holder with the tank. • 5. A pressure of 0.2 MPa was applied to the stainless steel holder with the tank using an air compressor (manufactured by Yaezaki Kuatsu Co., Ltd., product name “KAPSEL-CON YC-3R” or “PC4-15HLM”), and the enzyme solution was pumped. The permeate was received in a container such as a beaker, the amount of the permeate was recorded every 10 seconds, and (1) the permeation amount (permeate (kg/m^2)) and (2) the permeation rate (flux (kg/min×m^2)) per square meter of the membrane were determined by the following method. In addition, the slope a of an approximate curve y=ax+b obtained when (1) is plotted on the x axis and (2) is plotted on the y axis was determined.
Permeate (kg/m^2)=weight (g) of product that permeated at point n/(membrane radius (mm))×membrane radius (mm)×circumference ratio)(m^2)×1000 (1)
Flux (kg/min×m^2)=(permeate at point n−permeate at point (n−1))/(permeation time (min) at point n−permeation time (min) at point (n−1)) (2) • *n indicates a measurement point. In order to record the permeation amount for every 10 seconds, for example, when the point n is for the permeation amount or permeate at the time of permeation for 10 seconds, the point (n−1) is for the permeation amount of permeate at the time of permeation for 0 seconds.
as §1
Each lactase solution was obtained by adding the additive shown in the table in a predetermined amount to 60,000 U/g GODO-YNL2LS. […] The lactase activity of each lactase solution after storage at 50° C. for 3 days was measured.

T1 sequence (P00723 whole entry): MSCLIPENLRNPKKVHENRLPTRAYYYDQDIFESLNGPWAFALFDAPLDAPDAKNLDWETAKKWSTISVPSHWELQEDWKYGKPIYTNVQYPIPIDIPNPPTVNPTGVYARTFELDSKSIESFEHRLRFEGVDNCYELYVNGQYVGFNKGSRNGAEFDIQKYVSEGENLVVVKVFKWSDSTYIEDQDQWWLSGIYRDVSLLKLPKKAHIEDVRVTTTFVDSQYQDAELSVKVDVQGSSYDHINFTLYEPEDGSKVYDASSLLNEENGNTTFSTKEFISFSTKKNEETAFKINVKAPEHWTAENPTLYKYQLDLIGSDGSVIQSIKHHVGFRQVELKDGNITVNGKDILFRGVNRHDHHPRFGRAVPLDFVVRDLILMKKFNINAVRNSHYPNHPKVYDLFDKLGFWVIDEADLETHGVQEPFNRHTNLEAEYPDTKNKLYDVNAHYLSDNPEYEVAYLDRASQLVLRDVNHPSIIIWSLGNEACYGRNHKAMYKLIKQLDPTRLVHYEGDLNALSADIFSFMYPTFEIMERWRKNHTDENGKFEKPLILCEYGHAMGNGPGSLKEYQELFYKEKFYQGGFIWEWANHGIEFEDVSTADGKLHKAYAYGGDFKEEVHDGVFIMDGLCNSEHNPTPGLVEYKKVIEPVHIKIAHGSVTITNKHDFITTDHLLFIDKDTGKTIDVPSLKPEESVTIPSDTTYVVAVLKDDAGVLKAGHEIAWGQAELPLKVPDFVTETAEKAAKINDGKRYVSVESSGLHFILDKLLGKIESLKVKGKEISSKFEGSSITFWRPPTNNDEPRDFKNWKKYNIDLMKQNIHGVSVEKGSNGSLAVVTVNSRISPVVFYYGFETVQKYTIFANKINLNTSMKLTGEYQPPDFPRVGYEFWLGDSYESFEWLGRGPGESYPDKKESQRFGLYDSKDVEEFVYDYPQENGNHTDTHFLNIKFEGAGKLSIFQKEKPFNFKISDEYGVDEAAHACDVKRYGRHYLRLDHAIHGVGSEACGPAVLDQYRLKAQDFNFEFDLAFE

SMILES | Residual Activity (lactase; additive 0.01 %) [%] | Slope (−a) Before Shaking ([1]; additive 0.01 % in GODO-YNL2LS) | Slope (−a) After Shaking ([1]; additive 0.01 %) | further results
C[N+](C)(C)CC(=O)O [Betaine Hydrochloride] |  |  |  | Residual Activity (lactase; Table 2, addition amount 0.1): 66.5%; Slope Before Shaking ([1]; Table 2, addition amount 0.1, immediately after preparation): 0.0291
N[C@@H](CS)C(=O)O [Cysteine] |  |  |  | Residual Activity (lactase; Table 2, addition amount 0.02): 1.1%
CCCCC/C=C\C/C=C\CCCCCCCC(=O)O [Linoleic Acid] | 61.1 | 0.0265 | 0.0253 | residual activity of lactase activity after storage (storage stability test) (lactase): practical level
CCCCCCCCCC(=O)[O-].[Na+] [Na Decanoate] |  | 0.0228 |  | 
CCCCCCCCCCCC(=O)[O-].[Na+] [Na Laurate] |  | 0.0176 | 0.0590 | 
CCCCCCCCCCCCCC(=O)[O-].[Na+] [Na Myristate] | 70.7 | 0.0147 |  | 
CCCCCCCC/C=C\CCCCCCCC(=O)[O-].[Na+] [Na Oleate] | 71.4 |  |  | Residual Activity (lactase; additive 0.005 %): 64.3%; Slope (−a) Before Shaking ([1]; additive 0.005 % in GODO-YNL2LS): 0.0243; Slope (−a) After Shaking ([1]; additive 0.005 %): 0.0216; Slope (−a) Before Shaking ([1]; additive 0.1 % in GODO-YNL2LS): 0.0542; Slope (−a) After Shaking ([1]; additive 0.1 %): 0.0405
CCCCCCCCCCCCCCCC(=O)[O-].[Na+] [Na Palmitate] | 61.5 | 0.0200 | deteriorated | 
CCCCCCCCCCCCCCCCCC(=O)[O-].[Na+] [Na Stearate] | 61.9 | 0.0273 | deteriorated | 
CCCCCCCC/C=C\CCCCCCCC(=O)O [Oleic Acid] | 72.0 | 0.0272 | 0.0407 | residual activity of lactase activity after storage (storage stability test) (lactase): practical level
N[C@@H](CCC(=O)N[C@@H](CS)C(=O)NCC(=O)O)C(=O)O [Reduced Glutathione] |  |  |  | Residual Activity (lactase; Table 2, addition amount 0.02): 19.9%
